Where two headings read alike, the source gives them in different places. Values belong to the molecule of their own block, whether it stands above or below them.
How the values were obtained:
cynomolgus monkeys = conditions: 14 days apart
Description: A toxicity study in cynomolgus monkeys was conducted in which methionine (10 mM) was a component of the vehicle and of the formulated test article CrossMAb VEGFang2-0016 (faricimab). In this study, a total of 12 animals (6 males/6 females) were treated intravitreal with 50 μL/eye two times, 14 days apart. The left eyes were treated with the vehicle (containing 10 mM methionine) and the right eyes were treated with the formulated test article CrossMAb VEGFang2-0016 (faricimab), also containing 10 mM methionine.
(§1) Three studies (in cynomolgus monkeys and in New Zealand White rabbits) were conducted in which methionine (5-25 mM) was a component of the vehicle, administered intravitreally (also 50 μL/eye) up to six times, 14 days apart.

[1] = system: New Zealand White rabbits; conditions: methionine (5-25 mM) in vehicle, intravitreal 50 μL/eye up to six times, 14 days apart
Description: as §1

TIE2 = TIE2 (Homo sapiens, UniProt Q02763); conditions: Maisonpierre et al., Science 277 (1997); read-out: affinity to TIE2 (Kd); cited from earlier work
TIE2, sequence (Q02763 23-1124, species assumed): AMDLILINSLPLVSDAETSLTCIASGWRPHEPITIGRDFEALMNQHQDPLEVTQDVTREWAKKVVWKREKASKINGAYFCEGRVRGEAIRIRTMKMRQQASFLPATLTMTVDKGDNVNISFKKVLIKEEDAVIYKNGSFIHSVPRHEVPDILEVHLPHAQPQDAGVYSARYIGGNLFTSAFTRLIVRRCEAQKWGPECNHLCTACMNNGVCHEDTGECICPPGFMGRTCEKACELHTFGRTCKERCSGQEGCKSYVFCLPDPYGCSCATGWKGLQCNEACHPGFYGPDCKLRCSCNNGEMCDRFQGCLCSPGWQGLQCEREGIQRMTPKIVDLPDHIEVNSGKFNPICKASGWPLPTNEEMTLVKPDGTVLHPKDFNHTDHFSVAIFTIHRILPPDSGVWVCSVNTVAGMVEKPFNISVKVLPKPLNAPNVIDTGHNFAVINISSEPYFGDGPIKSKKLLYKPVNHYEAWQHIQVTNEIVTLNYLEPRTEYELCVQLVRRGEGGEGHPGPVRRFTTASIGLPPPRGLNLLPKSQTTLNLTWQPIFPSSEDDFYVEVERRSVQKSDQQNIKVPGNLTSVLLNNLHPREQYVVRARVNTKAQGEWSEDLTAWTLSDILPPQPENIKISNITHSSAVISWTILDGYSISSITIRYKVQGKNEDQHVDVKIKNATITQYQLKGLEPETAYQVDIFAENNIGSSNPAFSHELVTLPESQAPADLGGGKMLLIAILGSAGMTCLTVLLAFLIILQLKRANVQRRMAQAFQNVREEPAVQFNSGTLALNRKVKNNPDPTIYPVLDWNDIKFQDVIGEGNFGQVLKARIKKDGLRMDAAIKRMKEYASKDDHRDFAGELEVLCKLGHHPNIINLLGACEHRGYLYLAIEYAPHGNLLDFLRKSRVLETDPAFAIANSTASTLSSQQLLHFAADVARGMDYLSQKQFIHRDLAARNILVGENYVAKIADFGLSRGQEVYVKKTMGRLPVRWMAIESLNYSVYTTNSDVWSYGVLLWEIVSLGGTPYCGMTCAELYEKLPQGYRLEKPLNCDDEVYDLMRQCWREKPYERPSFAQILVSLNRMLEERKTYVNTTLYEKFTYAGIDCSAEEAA

ocular effects of methionine (cynomolgus monkeys; 10 mM methionine in vehicle and formulated faricimab, intravitreal 50 μL/eye two times): no ocular effects | ocular effects of methionine (cynomolgus monkeys; methionine (5-25 mM) in vehicle, intravitreal 50 μL/eye up to six times): no ocular effects | ocular effects of methionine [1]: no ocular effects
Molecule: CSCC[C@H](N)C(=O)O [methionine]

B1: Ang-1: angiopoietin-1, ligand of TIE2 (protein, UniProt Q15389 16-498, looked up)
Angiopoietin-1: HIGCSNQRRSPENSGRRYNRIQHGQCAYTFILPEHDGNCRESTTDQYNTNALQRDAPHVEPDFSSQKLQHLEHVMENYTQWLQKLENYIVENMKSEMAQIQQNAVQNHTATMLEIGTSLLSQTAEQTRKLTDVETQVLNQTSRLEIQLLENSLSTYKLEKQLLQQTNEILKIHEKNSLLEHKILEMEGKHKEELDTLKEEKENLQGLVTRQTYIIQELEKQLNRATTNNSVLQKQQLELMDTVHNLVNLCTKEGVLLKGGKREEEKPFRDCADVYQAGFNKSGIYTIYINNMPEPKKVFCNMDVNGGGWTVIQHREDGSLDFQRGWKEYKMGFGNPSGEYWLGNEFIFAITSQRQYMLRIELMDWEGNRAYSQYDRFHIGNEKQNYRLYLKGHTGTAGKQSSLILHGADFSTKDADNDNCMCKCALMLTGGWWFDACGPSNLNGMFYTAGQNHGKLNGIKWHYFKGPSYSLRSTTMMIRPLDF
Kd (TIE2): 3 nM

— patent publication US12503503B2, “Bispecific anti-VEGF/ANG2 antibody formulation” (Hoffmann-La Roche Inc., priority 2018, dated 2025)
